Test results reported in US9809623B2, “α4β7 peptide monomer and dimer antagonists” (Protagonist Therapeutics, Inc., priority 2014, dated 2017).
Read-outs that look alike come from different tables or passages of the source. Numbered stars: 1 amine (or outer) side, 2 acyl side, 3 side chain; on linkers, the order of the positions; unused ones are H or OH. Bridge positions count the residues as written; N and C are the ends. Square brackets hold non-standard residues; d marks the D form. Peptide text beside a SMILES is read from it. I, II: the chains in the order shown. Phe(4-COOH) = N[C@@H](Cc1ccc(C(=O)O)cc1)C(=O)O; Phe(4-tBu) = CC(C)(C)c1ccc(C[C@H](N)C(=O)O)cc1; Bip = N[C@@H](Cc1ccc(-c2ccccc2)cc1)C(=O)O; Diglycolyl = O=C(COCC(=O)[*:2])[*:1]; NMeR = CN[C@@H](CCCNC(=N)N)C(=O)O; β3hE = N[C@@H](CCC(=O)O)CC(=O)O; NMeK = CN[C@@H](CCCCN)C(=O)O; Pen = CC(C)(S)[C@H](N)C(=O)O

Experiment: Simulated Intestinal Fluid (SIF) Stability Assay
Type: in vitro ADME, porcine
Conditions: pig, simulated intestinal fluid (SIF) with 1% porcine pancreatin
In short: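 Peptides (22 μM final) incubated at 37 °C in FASSIF (pH 6.5) with 1% porcine pancreatin; aliquots quenched at various times and analyzed by LC-MS/MS against internal standard. Half-life from first-order exponential decay fit of percent remaining.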

[1] = pH 6.5, Table 3-B, > means experiment was stopped at that time and half life was not reached, read-out: Stabilty SIF t1/2

Q: With `CC(=O)N[C@@H]1C(=O)N(C)[C@@H](CCCNC(=N)N)C(=O)N[C@@H](CO)C(=O)N[C@@H](CC(=O)O)C(=O)N[C@@H]([C@@H](C)O)C(=O)N[C@@H](CC(C)C)C(=O)N[C@H](C(=O)N[C@@H](Cc2c[nH]c3ccccc23)C(=O)N[C@@H](CCC(=O)O)C(=O)N[C@H](CCCCNC(=O)COCC(=O)NCCCC[C@@H](NC(=O)[C@H](CCC(=O)O)NC(=O)[C@H](Cc2c[nH]c3ccccc23)NC(=O)[C@H]2NC(=O)[C@H](CC(C)C)NC(=O)[C@H]([C@@H](C)O)NC(=O)[C@H](CC(=O)O)NC(=O)[C@H](CO)NC(=O)[C@H](CCCNC(=N)N)N(C)C(=O)[C@@H](NC(C)=O)C(C)(C)SSC2(C)C)C(N)=O)C(N)=O)C(C)(C)SSC1(C)C` [compound 67] (I: Ac-[Pen][NMeR]SDTL[Pen]WE[dK]-NH2 / II: Ac-[Pen][NMeR]SDTL[Pen]WE[dK]-NH2; disulfide I:1-I:7, II:1-II:7; linker I:10-II:10 via Diglycolyl) as the compound, how does the half-life at 22 μM [1] read?
A: 121 min

Q: With `CC(=O)N[C@@H]1C(=O)N(C)[C@@H](CCCNC(=N)N)C(=O)N[C@@H](CO)C(=O)N[C@@H](CC(=O)O)C(=O)N[C@@H]([C@@H](C)O)C(=O)N[C@@H](CC(C)C)C(=O)N[C@H](C(=O)N[C@@H](Cc2ccc(C(C)(C)C)cc2)C(=O)N[C@@H](CCC(=O)O)CC(=O)N[C@H](CCCCN)C(N)=O)C(C)(C)SSC1(C)C` [compound 153] (Ac-[Pen][NMeR]SDTL[Pen][Phe(4-tBu)][β3hE][dK]-NH2; disulfide 1-7) as the compound, how does the half-life at 22 μM (pH 6.5, Table 3-B, alone or in parentheses after >360, read-out: Stabilty SIF t1/2, in hr (converted)) read?
A: 816 min

Q: Which half-life at 22 μM (pH 6.5, Table 4-C, t1/2, > means assay stopped at that time, read-out: SIF (porcine) Min) does the source give for `CC(=O)N[C@H]1CSSC[C@@H](C(=O)NCC(=O)N[C@@H](CCC(=O)O)C(=O)N[C@@H](CCCCN)C(N)=O)NC(=O)[C@H](CC(C)C)NC(=O)[C@H]([C@@H](C)O)NC(=O)[C@H](CC(=O)O)NC(=O)[C@H](CO)NC(=O)[C@H](CCCNC(=N)N)NC1=O` [compound 196, Ac-C-R-S-D-T-L-C-G-E-K-NH2] (Ac-CRSDTLCGEK-NH2; disulfide 1-7) here?
A: < 4 min

Q: Which half-life at 22 μM [1] does the source give for `CC(=O)N[C@@H]1C(=O)N(C)[C@@H](CCCNC(=N)N)C(=O)N[C@@H](CO)C(=O)N[C@@H](CC(=O)O)C(=O)N[C@@H]([C@@H](C)O)C(=O)N[C@@H](CC(C)C)C(=O)N[C@H](C(=O)N[C@@H](Cc2ccc(C(=O)O)cc2)C(=O)N[C@@H](CCC(=O)O)CC(=O)N(C)[C@@H](CCCCNC(=O)COCC(=O)NCCCC[C@@H](C(N)=O)N(C)C(=O)C[C@H](CCC(=O)O)NC(=O)[C@H](Cc2ccc(C(=O)O)cc2)NC(=O)[C@H]2NC(=O)[C@H](CC(C)C)NC(=O)[C@H]([C@@H](C)O)NC(=O)[C@H](CC(=O)O)NC(=O)[C@H](CO)NC(=O)[C@H](CCCNC(=N)N)N(C)C(=O)[C@@H](NC(C)=O)C(C)(C)SSC2(C)C)C(N)=O)C(C)(C)SSC1(C)C` [compound 148] (I: Ac-[Pen][NMeR]SDTL[Pen][Phe(4-COOH)][β3hE][NMeK]-NH2 / II: Ac-[Pen][NMeR]SDTL[Pen][Phe(4-COOH)][β3hE][NMeK]-NH2; disulfide I:1-I:7, II:1-II:7; linker I:10-II:10 via Diglycolyl) here?
A: > 300 min

Q: With `CC(=O)N[C@@H]1C(=O)N(C)[C@@H](CCCNC(=N)N)C(=O)N[C@@H](CO)C(=O)N[C@@H](CC(=O)O)C(=O)N[C@@H]([C@@H](C)O)C(=O)N[C@@H](CC(C)C)C(=O)N[C@H](C(=O)N[C@@H](Cc2ccc(-c3ccccc3)cc2)C(=O)N[C@@H](CCC(=O)O)CC(=O)N(C)[C@@H](CCCCNC(=O)COCC(=O)NCCCC[C@@H](C(N)=O)N(C)C(=O)C[C@H](CCC(=O)O)NC(=O)[C@H](Cc2ccc(-c3ccccc3)cc2)NC(=O)[C@H]2NC(=O)[C@H](CC(C)C)NC(=O)[C@H]([C@@H](C)O)NC(=O)[C@H](CC(=O)O)NC(=O)[C@H](CO)NC(=O)[C@H](CCCNC(=N)N)N(C)C(=O)[C@@H](NC(C)=O)C(C)(C)SSC2(C)C)C(N)=O)C(C)(C)SSC1(C)C` [compound 150] (I: Ac-[Pen][NMeR]SDTL[Pen][Bip][β3hE][NMeK]-NH2 / II: Ac-[Pen][NMeR]SDTL[Pen][Bip][β3hE][NMeK]-NH2; disulfide I:1-I:7, II:1-II:7; linker I:10-II:10 via Diglycolyl) as the compound, how does the half-life at 22 μM [1] read?
A: > 300 min
